How the values were obtained:
blood glucose level = experiment: Lowering of sugar level in blood after oral starch load; assay type: in vivo; conditions: male SD rats fasted 12 hrs, 1 hr after administration, glucose oxidase method
Procedure: To two groups of 5 male SD rats fasted for 12 hrs, 1.5 g/kg of starch was orally administered, concurrently with 40 mg/kg and 80 mg/kg of samples. Then, blood was taken from the rats after 1 hr from administration, and glucose level in blood was determined by glucose oxidase method and compared with control group which has not taken the CK-4416 sample.

amylase = experiment: Inhibition of amylase activity; assay type: biochemical; conditions: 0.25M phosphate buffer pH 7.0, starch substrate, 37° C., absorbance at 660 nm; 30 min; read-out: half(50%) inhibition ratio for amylase activity(IC50)
Procedure: An enzyme solution(hereinafter referred to as `solution A`) containing amylase dissolved in 0.25M phosphate buffer(pH 7.0), 0.25M phosphate buffer solution(pH 7.0)(hereinafter referred to as `solution B`) and 0.04 (w/v) % starch solution (hereinafter referred to as `solution C`) were prepared, respectively. Then, 0.05 ml of solution B containing CK-4416 dissolved in solution B, 0.1 ml of solution B and 0.05 ml of solution B were combined to incubate at 37° C. for 5 min, and further incubated for 30 min after the addition of 0.5 ml of solution C. After […], absorbance at 660 nm was deter-mined for CK-4416 sample(T) and control(C) which is free of sample.
Inhibition ratio=(C-T)/C×100

[1] = tested on: Gram-positive bacterial strains; experiment: Antibacterial activity, paper disc method, Gram-positive strains; assay type: cell-based; conditions: 1 mg/ml sample
Procedure: (§1) Antibacterial activities for Gram-positive and negative bacterial strains were determined with 1 mg/ml of CK-4416 sample, by employing paper disc method.

[2] = tested on: Comamonas terrigena(ATCG 8461); experiment: Antibacterial activity, paper disc method, Gram-negative strain; assay type: cell-based; conditions: 1 mg/ml sample, read-out: inhibitory zone
Procedure: To four of 500 ml Erlenmeyer flasks was addled 100 ml of a medium for seed culture(pH 6.5) containing glucose 1 (w/v) %, dextrin 1 (w/v) %, NZ-amine(type A) 0.5 (w/v) %, yeast extract 0.5 (w/v) % and calcium carbonate 0.1 (w/v) %, and sterilized at 120° C. for 15 min. 1 platinum loop of slant culture of Streptomyces sp. CK-4416 which was obtained from a subculture, was inoculated to each of four flasks and incubated under shaking at 27° C. for 3 days. Then, 100 ml of culture media(pH 6.5) containing soluble starch 3 (w/v) %, soybean powder 1.5 (w/v) %, corn steep liquor 1.5 (w/v) %, polypeptone 0.2 (w/v) %, Na2 S2 O3 0.1 (w/v) %, calcium carbonate 0.5 (w/v) %, cobalt chloride 0.0001 (w/v) % was added to 200 of 500 ml Erlenmeyer flasks and sterilized at 120° C. for 30 min. 2 (v/v) % of seed culture was inoculated to the media and incubated at 27° C. for 3 days under shaking at 240 rpm. CK-4416 was quantitatively assayed by the determination of antimicrobial activity employing a test organism Comamonas terrigena(ATCC 8461) in accordance with conventional paper disc method. After 3 days culture, pH and yield were determined as 7.2 and 0.06 mg/ml, respectively.
as §1

[3] = Acidic, neutral or basic properties; assay type: physicochemical
Text: 13. Acidic, neutral or basic properties:

Solubility = assay type: physicochemical
Text: soluble in water and ethanol insoluble in benzene and normal hexane

SMILES: OCC1OC(OC2C(CO)OC(OC3C(CO)OC(OC4C(CO)OC(OC5C(CO)OC(O)C(O)C5O)C(O)C4O)C(O)C3O)C(O)C2O)C(O)C(O)C1NC1C(O)C(O)C(O)C2(CO)OC12 (single isomer, unassigned) [CK-4416]
- Blood glucose level (blood glucose level; 40 mg/kg oral with 1.5 g/kg starch): 97.5 ± 14.3
- Blood glucose level (blood glucose level; 80 mg/kg oral with 1.5 g/kg starch): 87.5 ± 11.3
- IC50 (amylase): 1600 nM
- Antibacterial activity [1]: no activity
- zone of inhibition at 1000 µg/mL [2]: 24.8 mm
- Acidic, neutral or basic properties [3]: weakly basic
- Solubility (Solubility; in benzene and normal hexane): insoluble
- Solubility (Solubility; in water and ethanol): soluble

Reference: patent US5866377A, “Aminooligosaccharide derivative and process for preparing the same” (Chong Kun Dang Corporation, priority 1994, dated 1999)
